# Source: patent US20070292405A1, “Uses of Erss Modulators” (priority 2004, published 2007)
# What was measured:
# [1] = target: T1, human androgen receptor (hAR) (Homo sapiens, UniProt P10275); assay: Luciferase reporter assay: transactivation of PSA-Luc reporter in COS-1 cells containing hAR; assay type: cell-based
# T1 construct: expressed in transfected cells; host or cells: COS-1
# T1 sequence (P10275 1-920): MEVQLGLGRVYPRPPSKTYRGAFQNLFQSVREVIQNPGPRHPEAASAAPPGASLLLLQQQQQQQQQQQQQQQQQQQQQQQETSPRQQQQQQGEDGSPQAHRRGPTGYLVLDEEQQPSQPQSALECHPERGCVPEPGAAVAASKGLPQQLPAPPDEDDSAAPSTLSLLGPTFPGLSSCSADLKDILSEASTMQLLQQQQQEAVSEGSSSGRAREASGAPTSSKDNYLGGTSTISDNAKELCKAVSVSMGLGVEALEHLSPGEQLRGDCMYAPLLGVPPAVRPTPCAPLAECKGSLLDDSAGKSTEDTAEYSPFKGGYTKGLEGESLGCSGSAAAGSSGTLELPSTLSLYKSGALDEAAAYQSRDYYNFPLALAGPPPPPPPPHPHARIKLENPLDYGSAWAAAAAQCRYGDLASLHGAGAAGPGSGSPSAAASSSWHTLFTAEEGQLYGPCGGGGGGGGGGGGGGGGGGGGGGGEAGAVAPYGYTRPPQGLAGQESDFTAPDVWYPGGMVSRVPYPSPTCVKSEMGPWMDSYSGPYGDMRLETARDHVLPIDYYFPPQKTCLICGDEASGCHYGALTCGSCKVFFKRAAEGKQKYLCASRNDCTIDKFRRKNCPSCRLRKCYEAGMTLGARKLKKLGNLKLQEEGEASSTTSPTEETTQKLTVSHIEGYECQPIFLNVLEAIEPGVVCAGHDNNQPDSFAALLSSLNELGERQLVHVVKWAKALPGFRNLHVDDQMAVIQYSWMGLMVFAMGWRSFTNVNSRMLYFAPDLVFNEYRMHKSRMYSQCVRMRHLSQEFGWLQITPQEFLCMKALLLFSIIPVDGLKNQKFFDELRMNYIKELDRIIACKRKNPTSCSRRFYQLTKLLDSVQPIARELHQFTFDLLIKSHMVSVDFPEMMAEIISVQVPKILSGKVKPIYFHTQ
# Protocol: (§1) Values shown are means (±S.E.M.) of 3 to 5 independent experiments each carried out in triplicate.
# COS-1 cells and HepG2 cells were maintained in high glucose Dulbecco's minimum essential medium (DMEM) containing penicillin (25 units/ml), streptomycin (25 μg/ml), and 10% fetal calf serum (v/v). Cells were seeded at a density of 5×10^5 cells/dish and left to adhere overnight. On the day of the transfection, the medium was replaced with DMEM lacking phenol red supplemented with 10% DCC-FCS (v/v). Transfections were carried out using the calcium phosphate procedure according to standard protocols with 10 μg DNA ([…] expression plasmid, 1-5 μg reporter plasmid, 1 μg pCH110 encoding β-galactosidase used as internal control (Pharmacia) and 3-7 μg pGEM3). Expession plasmid were: the mouse ERα receptor (mERα gift from Prof. M. Parker, London U.K. (31)), human ERβ. receptor (hERβ; from Dr R. White, London U.K. (32)) and human androgen receptor (pSVARo; Prof. A. Brinkman, Rotterdam Holand). […] Following cell lysis, luciferase and β-galactosidase activities were measured as described (33). Data are expressed as relative luciferase/β-galactosidase and are means±S.E.M. from at least three independent experiments. […]
# [2] = target: T2, human ERβ receptor (hERβ) (Homo sapiens, UniProt Q92731); assay: Luciferase reporter assay: transactivation of (ERE)-TK-Luc by ERβ in HepG2 cells; assay type: cell-based
# T2 construct: expressed in transfected cells; host or cells: HepG2
# Protocol: as §1
# (§2) COS-1 cells and HepG2 cells were maintained in high glucose Dulbecco's minimum essential medium (DMEM) containing penicillin (25 units/ml), streptomycin (25 μg/ml), and 10% fetal calf serum (v/v). Cells were seeded at a density of 5×10^5 cells/dish and left to adhere overnight. On the day of the transfection, the medium was replaced with DMEM lacking phenol red supplemented with 10% DCC-FCS (v/v). Transfections were carried out using the calcium phosphate procedure according to standard protocols with 10 μg DNA ([…] expression plasmid, 1-5 μg reporter plasmid, 1 μg pCH110 encoding β-galactosidase used as internal control (Pharmacia) and 3-7 μg pGEM3). Expession plasmid were: the mouse ERα receptor (mERα gift from Prof. M. Parker, London U.K. (31)), human ERβ. receptor (hERβ; from Dr R. White, London U.K. (32)) and human androgen receptor (pSVARo; Prof. A. Brinkman, Rotterdam Holand). […] Reporter plasmids were: (ERE)-TK-Luc (gift From Dr V. Giguere, Montreal, Canada) for estrogen responsivity and PSA (PSA61-luc, Prof. J. Trapman, Rotterdam Holland) for androgen responsivity. […] Following cell lysis, luciferase and β-galactosidase activities were measured as described (33). Data are expressed as relative luciferase/β-galactosidase and are means±S.E.M. from at least three independent experiments.
# (§3) Both COS-1 cells and HepG2 cells were used and both these cell lines require exogenous AR, ERα and ERβ to activate androgen (PSA) or estrogen (ERE) responsive reporter genes.
# human ERβ receptor = target: T3, human ERβ receptor (Homo sapiens, UniProt Q92731); assay: Ligand-competition study: [3H]-E2 binding to in vitro synthesised ERβ protein; conditions: 7HD 0-250 μM, 16 h, reticulocyte lysate
# T3 construct: made in house; host or cells: cell-free: TnT-coupled reticulocyte lysate system (Promega)
# Protocol: Reticulocyte lysate containing ERβ protein was equilibrated for 16 h with […] [3H]-E2 and the indicated fold excess of 7HD. Data represent [3H]-E2 bound in presence of 7HD (0-250 μM). [3H]-E2 binding in the absence of 7HD was set at 100%. *, p<0.001 and γ, p<0.01; 7HD vs control without 7HD.
# Human ERβ clone was synthesised in vitro using the TnT-coupled reticulocyte lysate system following manufacturer instructions (Promega, Southampton, U.K.). Translation reaction mixtures were diluted five times with TEDGMo buffer (40 mM Tris/Hcl, pH 7.4/1 mM EDTA/10% (vol/vol) glycerol/10 mMNa2MoO4/10 mM DTT) and 0.1 ml aliquots were incubated for 16 h at 4° C. with 0.5 nM [2,4,6,7-^3H]4-E2 (specific radioactivity 89 Ci/mmol) in presence of either 0, 1, 5, 10, 20, 50 and 250 μM of 7HD. Bound and unbound steroids were separated by filtration.
# The ability of 7HD to inhibit [^3H]-E2 binding was also measured by a competition binding assay using human ERβ receptor synthesised in vitro from our human ERβ clone (hERβ) using a TnT-coupled reticulocyte lysate system (FIG. 7). In our competition study, 7HD interacted with ERβ receptor and inhibited [^3H]-E2 binding dose-dependently.
# [3] = target: T4, mouse ERα receptor (mERα) (Mus musculus, UniProt P19785); assay: Luciferase reporter assay: transactivation of (ERE)-TK-Luc by ERα in COS cells; assay type: cell-based; conditions: for activation of ERα (in words): compound alone, 7HD at similar concentration as for ERβ, ICI 182, 780 at 1 μM
# T4 construct: expressed in transfected cells; host or cells: COS (COS-1)
# T4 sequence (P19785 1-599): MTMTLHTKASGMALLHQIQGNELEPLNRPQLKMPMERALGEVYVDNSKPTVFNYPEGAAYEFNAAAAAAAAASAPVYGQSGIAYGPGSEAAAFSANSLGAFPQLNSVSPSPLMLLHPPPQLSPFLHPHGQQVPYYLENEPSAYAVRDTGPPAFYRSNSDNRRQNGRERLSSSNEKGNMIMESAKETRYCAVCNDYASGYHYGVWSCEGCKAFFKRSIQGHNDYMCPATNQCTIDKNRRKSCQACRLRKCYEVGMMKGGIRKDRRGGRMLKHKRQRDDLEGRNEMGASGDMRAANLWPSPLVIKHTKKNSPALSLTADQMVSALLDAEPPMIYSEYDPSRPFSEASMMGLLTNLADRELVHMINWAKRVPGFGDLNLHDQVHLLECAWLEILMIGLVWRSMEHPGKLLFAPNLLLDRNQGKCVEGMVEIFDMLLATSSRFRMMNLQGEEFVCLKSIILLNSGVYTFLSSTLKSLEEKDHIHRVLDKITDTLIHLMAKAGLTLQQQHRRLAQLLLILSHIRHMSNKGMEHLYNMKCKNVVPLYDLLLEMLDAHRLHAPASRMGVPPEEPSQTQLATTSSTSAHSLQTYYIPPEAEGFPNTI
# Protocol: as §1, §2, §3
# [4] = test system: whole human prostate chips; assay: DHEA metabolism in whole human prostate chips, metabolites analysed by HPLC; assay type: in vitro ADME
# 3β-HSD = assay: Production of A/anedione from DHEA in human prostate chips (TLC); assay type: biochemical; conditions: 1 μM trilostane
# T2 sequence (Q92731 whole entry): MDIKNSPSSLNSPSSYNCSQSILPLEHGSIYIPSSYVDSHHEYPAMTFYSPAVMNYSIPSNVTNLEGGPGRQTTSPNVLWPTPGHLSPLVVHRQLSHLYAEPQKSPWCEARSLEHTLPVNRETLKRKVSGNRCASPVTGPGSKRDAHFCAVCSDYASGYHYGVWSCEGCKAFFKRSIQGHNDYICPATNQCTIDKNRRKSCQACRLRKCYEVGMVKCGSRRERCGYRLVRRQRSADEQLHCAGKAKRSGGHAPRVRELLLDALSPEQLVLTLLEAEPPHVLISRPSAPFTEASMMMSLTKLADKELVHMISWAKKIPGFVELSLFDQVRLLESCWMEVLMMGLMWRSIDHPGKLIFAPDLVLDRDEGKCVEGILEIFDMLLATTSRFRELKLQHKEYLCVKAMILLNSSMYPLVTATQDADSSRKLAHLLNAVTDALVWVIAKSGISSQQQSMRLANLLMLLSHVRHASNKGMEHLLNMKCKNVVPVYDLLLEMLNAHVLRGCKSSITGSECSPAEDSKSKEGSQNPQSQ
# T3 sequence (Q92731 whole entry): as above
smiles,measurement,setting,value
"C[C@]12CC[C@H](O)CC1=C[C@@H](O)[C@@H]1[C@@H]2CC[C@]2(C)C(=O)CC[C@@H]12 [7HD, 7α-hydroxyDHEA]",activation of androgen receptor dependent transcription of PSA-luciferase reporter (in words),[1],unable to activate
same,EC50,"[2]; (ERE)-TK-Luc, HepG2 cells, read-out: EC50 of activation of ERβ-mediated transcription",6.2 µM
same,transcriptional effect combined with sub-minimal dose of E2,"[2]; E2 0.1 nM, p<0.01",additive
same,activation of ERβ-mediated transcription (in words),"[2]; compound alone, ICI 182, 780 at 1 μM",significantly activated
same,inhibition of [3H]-E2 binding to ERβ,human ERβ receptor,dose-dependently
same,activation of ERα (in words),[3],"minimal, non-specific activation"
"C[C@]12CC[C@H](O)CC1=CC[C@@H]1[C@@H]2CC[C@]2(C)C(=O)CC[C@@H]12 [DHEA, dehydroepiandosterone]",share of DHEA metabolites that represent A/enetriol,[4],9%
same,share of DHEA metabolites that were products of 3β-HSD and 17β-HSD,[4],37%
"C[C@]12CC[C@@H]3c4ccc(O)cc4C[C@@H](CCCCCCCCC[S+]([O-])CCCC(F)(F)C(F)(F)F)[C@H]3[C@@H]1CC[C@@H]2O (some centres unmarked) [ICI 182, 780]","effect on E2 and 7HD-induced transcription of luciferase, ERα co-transfected cells",[3]; 1 μM,completely abolished
same,activation of ERα (in words),[3],could not stimulate
C[C@]12CC[C@H]3[C@@H](CC[C@@]45O[C@@H]4C(O)=C(C#N)C[C@]35C)[C@@H]1CC[C@@H]2O [Trilostane],effect on production of A/anedione,3β-HSD,successfully blocked
